Assay results from EPA's ToxValDB 9.5 (doi:10.2903/j.efsa.2017.4912).
In brackets after ≈: the same amount, converted by molar mass.

Tests used:
[1] = system: Oryctolagus sp.
[2] = system: Rattus norvegicus; settings: for NOAEL: body weight
[3] = system: Anas platyrhynchos; settings: reproductive; duration: 21 weeks; M; reproduction
[4] = system: Apis mellifera; settings: acute, duration: 48 hours, mortality
[5] = system: Colinus virginianus
[6] = system: Cyprinodon variegatus; settings: chronic/long-term; duration: 28 days; other
[7] = system: Folsomia candida; settings: chronic/long-term; duration: 28 days
[8] = system: Oncorhynchus mykiss; settings: acute; duration: 96 hours; mortality
[9] = system: Tagia sp.; settings: chronic/long-term; duration: 56 days
[10] = system: Typhlodromus pyri; test: LR50; higher = less toxic; settings: not reported; duration: 7 days; mortality

Compound	NOAEL ([1]; developmental, development) [mg/kg-day]	NOAEL ([2]; chronic, duration: 2 years) [mg/kg-day]	NOEL [3] [mg/kg-day]	LD50 ([4]; dermal) [µg/piece]	LD50 ([4]; oral, unspecified) [µg/piece]	LD50 ([5]; acute, oral, mortality) [mg/kg-day]	NOEL ([5]; reproduction developmental, duration: 23 weeks, reproduction) [mg/kg-day]	NOEC [6] [mg/L]	NOEC [7] [mg/kg]	LC50 [8] [mg/L]	NOAEL ([1]; reproduction developmental, mortality) [mg/kg-day]	LD50 ([2]; acute, oral, mortality) [mg/kg-day]	NOAEL ([2]; reproduction developmental) [mg/kg-day]	NOAEL ([2]; subchronic, duration: 90 days, oral) [mg/kg-day]	NOEC [9] [mg/kg]	LR50 [10] [g/ha]
COC(=O)c1ccccc1S(=O)(=O)NC(=O)Nc1nc(C)nc(OC)n1 [Metsulfuron-methyl]	25	22.4														
COC(=O)c1ccccc1S(=O)(=O)NC(=O)N(C)c1nc(C)nc(OC)n1 [Tribenuron-methyl]		1	21	> 98.4	> 9.1	> 2250	21	11.9	30.8	738 (≈ 1870 µM)	20	> 5000	2	7	3.2	> 29.6
